# In publication PMC5823845 (Bioorganic & Medicinal Chemistry, 2018):
# How the values were obtained:
# [1] = Plasma protein binding, equilibrium dialysis; format: in vitro ADME
# Protocol: Equilibrium dialysis is used to determine the extent of binding of a compound to plasma proteins. A semi-permeable membrane separates a protein-containing compartment from a protein-free compartment. The system is allowed to equilibrate at 37 °C. The test compound present in each compartment is quantified by LC-MS/MS. The extent of binding is reported as a fraction unbound (fu) value which is calculated as detailed below;
# fu = 1 – (PC - PF /PC). PC = Test compound concentration in protein-containing compartment. PF = Test compound concentration in the protein-free compartment.
# [2] = Log D pH 7.4, octanol/buffer shake flask method
# [3] = Stability and intrinsic clearance in cryopreserved hepatocytes; conditions: mouse
# in vivo [4] = conditions: C57, mouse, iv, 1 mg/kg
# [5] = system: panel of 120 other receptors, channels and enzymes; experiment: CEREP selectivity screen, binding and enzyme assays; conditions: 10 μM
# Protocol: The CEREP selectivity screen was performed on the following targets:
# A1, A2A, A3, α1, α2, β1, β2, AT1, AT2, BZD central, BZD periph, BB, B2, CGRP, CB1, CCK1, CCK2, D1, D2S, D3, D4.4, D5, ETA, ETB, GABA, GAL1, GAL2, PDGF, CXCR2, CCR1, TNF- α, H1, H2, MC4, MT1, M1, M2, M3, M4, M5, NK1, NK2, NK3,Y1, Y2, NTS1(NT1), δ2, κ, µ, NOP(ORL1) , PAC1(PACAP), PPARγ, PCP, EP2, EP4, IP(PGI2,), P2X, P2Y,5-HT1A, 5-HT1B, 5-HT2A, 5-HT2B, 5-HT2C, 5-HT3, 5-HT5A, 5-HT6, 5-HT7, σ, sst, GR, ER, VPAC1(VIP1), V1a, Ca^2+ channel (L), KV channel, KV channel, SKCa channel, Na^+ channel, Cl^- channel, norepinephrine transporter. dopamine transporter, 5-HT transporter.
# sPLA2, COX1, COX2, 5-lipoxygenase, 12-lipoxygenase, inducible NOS, PDE2A1, PDE3A, PDE4D2, PDE5, PDE6, ACE, ACE-2, BACE-2, ECE-1, elastase, caspase-3, caspase-8, cathepsin D, cathepsin L, neutral endopeptidase, MMP-1, MMP-3, MMP-9, tryptase, TACE, phosphatase 1B, phosphatase CDC25A, Scr kinase, acetylcholinesterase, MAO-A, MAO-B, CENP-E, Eg5, HDAC3, HDAC4, HMG-CoA reductase, HDAC11, surtuin-1, surtuin-2.
# Cyp 450 3A4 = molecular target: T1, Cyp 450 3A4 (Homo sapiens, UniProt P08684); experiment: Cytochrome P450 inhibition in human liver microsomes; format: in vitro ADME; conditions: human liver microsomes
# T1 construct: tissue Cyprotex (CRO); host or cells: human liver microsomes
# T1 sequence (P08684 whole entry): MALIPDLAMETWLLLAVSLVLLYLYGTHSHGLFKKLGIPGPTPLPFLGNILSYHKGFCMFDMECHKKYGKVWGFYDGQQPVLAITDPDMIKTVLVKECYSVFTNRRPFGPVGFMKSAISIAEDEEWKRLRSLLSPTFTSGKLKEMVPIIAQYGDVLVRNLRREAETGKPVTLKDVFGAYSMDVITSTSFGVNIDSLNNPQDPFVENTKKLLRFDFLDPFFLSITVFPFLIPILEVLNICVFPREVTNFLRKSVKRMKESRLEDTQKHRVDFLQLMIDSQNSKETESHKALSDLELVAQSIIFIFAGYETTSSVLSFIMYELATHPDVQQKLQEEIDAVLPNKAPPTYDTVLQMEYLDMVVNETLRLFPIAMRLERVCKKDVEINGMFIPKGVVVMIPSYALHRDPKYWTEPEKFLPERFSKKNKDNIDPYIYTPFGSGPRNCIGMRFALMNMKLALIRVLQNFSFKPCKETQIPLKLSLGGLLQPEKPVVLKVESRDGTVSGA
# Protocol: (§1) The five main cytochrome P450 isoforms (CYP1A, CYP2C9, CYP2C19, CYP2D6 and CYP3A4) were investigated in the P450 inhibition assay. […] At the end of the incubation, the formation of the metabolite was monitored by LC-MS/MS (or fluorescence in the case of CYP1A) at each of the test compound concentrations.
# Cyp 450 2D6 = molecular target: T2, Cyp 450 2D6 (Homo sapiens, UniProt P10635); experiment: as above; format: in vitro ADME; conditions: human liver microsomes
# T2 construct: tissue Cyprotex (CRO); host or cells: human liver microsomes
# T2 sequence (P10635 whole entry): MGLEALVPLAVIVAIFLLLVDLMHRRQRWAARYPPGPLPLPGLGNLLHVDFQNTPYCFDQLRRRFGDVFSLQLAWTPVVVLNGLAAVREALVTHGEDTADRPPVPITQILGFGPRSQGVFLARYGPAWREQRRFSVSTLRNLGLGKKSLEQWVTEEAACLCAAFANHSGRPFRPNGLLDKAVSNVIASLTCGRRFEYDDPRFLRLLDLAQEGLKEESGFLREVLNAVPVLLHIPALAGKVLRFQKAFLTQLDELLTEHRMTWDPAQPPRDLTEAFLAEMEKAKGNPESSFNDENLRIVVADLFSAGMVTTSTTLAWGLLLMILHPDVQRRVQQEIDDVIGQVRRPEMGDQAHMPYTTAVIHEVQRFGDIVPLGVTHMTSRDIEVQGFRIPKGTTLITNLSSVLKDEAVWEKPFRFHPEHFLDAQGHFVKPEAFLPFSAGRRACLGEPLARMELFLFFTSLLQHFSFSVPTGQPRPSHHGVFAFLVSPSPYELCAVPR
# Protocol: as §1
# Cyp 450 2C19 = molecular target: T3, Cyp 450 2C19 (Homo sapiens, UniProt P33261); experiment: as above; format: in vitro ADME; conditions: human liver microsomes
# T3 construct: tissue Cyprotex (CRO); host or cells: human liver microsomes
# T3 sequence (P33261 whole entry): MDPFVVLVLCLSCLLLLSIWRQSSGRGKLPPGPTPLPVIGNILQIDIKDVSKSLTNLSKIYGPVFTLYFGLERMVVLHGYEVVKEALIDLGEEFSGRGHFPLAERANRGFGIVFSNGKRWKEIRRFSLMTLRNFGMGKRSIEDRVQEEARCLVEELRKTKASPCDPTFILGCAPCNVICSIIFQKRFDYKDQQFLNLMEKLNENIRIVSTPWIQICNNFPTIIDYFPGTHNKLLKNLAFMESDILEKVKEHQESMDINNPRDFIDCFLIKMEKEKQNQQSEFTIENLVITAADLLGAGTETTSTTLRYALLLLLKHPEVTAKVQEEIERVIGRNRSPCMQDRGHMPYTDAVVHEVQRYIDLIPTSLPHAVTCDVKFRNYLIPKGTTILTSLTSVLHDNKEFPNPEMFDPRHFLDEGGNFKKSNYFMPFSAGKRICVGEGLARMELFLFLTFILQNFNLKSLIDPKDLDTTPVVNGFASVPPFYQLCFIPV
# Protocol: as §1
# Cyp 450 1A2 = molecular target: T4, Cyp 450 1A2 (Homo sapiens, UniProt P05177); experiment: as above; format: in vitro ADME; conditions: human liver microsomes
# T4 construct: tissue Cyprotex (CRO); host or cells: human liver microsomes
# T4 sequence (P05177 1-516): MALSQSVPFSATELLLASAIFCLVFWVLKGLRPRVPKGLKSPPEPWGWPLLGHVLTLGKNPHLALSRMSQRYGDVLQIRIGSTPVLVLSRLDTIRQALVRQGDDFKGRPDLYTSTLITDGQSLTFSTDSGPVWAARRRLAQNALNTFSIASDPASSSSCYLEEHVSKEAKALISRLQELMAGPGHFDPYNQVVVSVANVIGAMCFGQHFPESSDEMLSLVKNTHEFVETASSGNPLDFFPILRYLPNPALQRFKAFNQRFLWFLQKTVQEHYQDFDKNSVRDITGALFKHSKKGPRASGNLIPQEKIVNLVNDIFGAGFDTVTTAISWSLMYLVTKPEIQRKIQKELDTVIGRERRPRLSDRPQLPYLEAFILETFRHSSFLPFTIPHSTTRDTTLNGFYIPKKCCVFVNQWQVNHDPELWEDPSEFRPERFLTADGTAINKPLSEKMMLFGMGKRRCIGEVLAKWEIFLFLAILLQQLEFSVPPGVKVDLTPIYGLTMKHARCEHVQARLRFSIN
# Protocol: as §1
# Cyp 450 2C9 = molecular target: T5, Cyp 450 2C9 (Homo sapiens, UniProt P11712); experiment: as above; format: in vitro ADME; conditions: human liver microsomes
# T5 construct: tissue Cyprotex (CRO); host or cells: human liver microsomes
# T5 sequence (P11712 whole entry): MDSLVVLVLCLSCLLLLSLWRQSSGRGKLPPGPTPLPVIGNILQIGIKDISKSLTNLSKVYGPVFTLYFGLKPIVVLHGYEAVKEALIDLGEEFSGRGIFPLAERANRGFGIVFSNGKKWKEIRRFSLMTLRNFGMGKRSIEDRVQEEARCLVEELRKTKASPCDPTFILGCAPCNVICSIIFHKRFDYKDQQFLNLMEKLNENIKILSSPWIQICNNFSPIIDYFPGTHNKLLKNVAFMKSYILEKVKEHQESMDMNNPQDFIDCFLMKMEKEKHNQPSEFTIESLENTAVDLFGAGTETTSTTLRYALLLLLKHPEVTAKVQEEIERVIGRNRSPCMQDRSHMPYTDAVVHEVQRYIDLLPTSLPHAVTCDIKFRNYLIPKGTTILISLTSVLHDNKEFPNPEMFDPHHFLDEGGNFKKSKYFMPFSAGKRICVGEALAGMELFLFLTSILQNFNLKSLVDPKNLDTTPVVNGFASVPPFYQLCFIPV
# Protocol: as §1
# [6] = Intrinsic clearance in liver microsomes; format: in vitro ADME; conditions: liver microsomes, 37 °C, NADPH, 45 min, mean of 5
# Protocol: The reaction is terminated by the addition of methanol. Following centrifugation, the supernatant is analyzed on the LC-MS/MS. […] The data is the mean on 5 separate experiments.
# The ln peak area ratio (compound peak area/internal standard peak area) is plotted against time and the gradient of the line determined.
# (see Supplementary data file for details).
# [7] = system: Salmonella Typhimurium (TA98, TA100, and TA1535); experiment: Bacterial cytotoxicity; format: cell-based; conditions: up to 100 μM; presence and absence of S9
# Excerpt: The results for cytotoxicity are expressed as percent of control growth (OD650). A compound with growth less than 60% of control is flagged and considered to be cytotoxic.
# in vivo [8] = conditions: male, Beagle, dog, iv, 0.5 mg/kg
# [9] = C57 mice, n = 3
smiles,measurement,setting,value
"CCOc1c(Cl)cc(C(=O)Nc2ccc(C(=O)O)c(C)c2)cc1OC(C)C [Compound 56, 4-(3-Chloro-4-ethoxy-5-isopropoxybenzamido)-2-methylbenzoic acid]",fraction unbound,[1]; human,0.07
same,fraction unbound,[1]; mouse,0.09
same,logD,[2],1.8
same,half-life at 1 μM,[3],3.73 h
same,half-life at 30 μM,[3],> 5 h
same,hepatocyte CLint at 1 μM,[3],12 µL/min/1e6 cells
same,hepatocyte CLint at 30 μM,[3],< 9 µL/min/1e6 cells
same,Vd,in vivo [4],0.3 L/kg
same,clearance,in vivo [4],0.282 L/h/kg
same,"interactions with panel of 120 receptors, channels and enzymes",[5],no significant interactions
same,"inhibition (or stimulation), all panel targets",[5]; two independent experiments,≤ 25%
same,IC50,Cyp 450 3A4,> 25 µM
same,IC50,Cyp 450 2D6,> 25 µM
same,IC50,Cyp 450 2C19,> 25 µM
same,IC50,Cyp 450 1A2,> 25 µM
same,IC50,Cyp 450 2C9,> 25 µM
same,microsomal CLint,[6]; human microsomes,5.3 µL/min/mg
same,microsomal CLint,[6]; mouse microsomes,37.6 µL/min/mg
same,bacterial cytotoxicity tests,[7],negative
same,Vd,in vivo [8],0.66 L/kg
same,clearance,in vivo [8],0.138 L/h/kg
same,po F,"[9]; 1 mg/kg iv and po, 1 mg/kg",84%
same,iv t1/2,[9]; 1 mg/kg iv,1.9 h
same,po Cmax,[9]; 1 mg/kg po,2.007 µg/mL
same,po Tmax,[9]; 1 mg/kg po,0.25 h
